Blank lines part the entries; values can stand above or below the molecule they belong to.
Legend:
[1] = system: 4T1 luciferase cells; format: in vivo; settings: MYD1-72 Fc 1 mg/kg daily, TKIs 12.5 mg/kg twice daily; for reduction in lung metastases compared to vehicle treated mice: ex vivo bioluminescent imaging; for size of primary tumors: three weeks, vs control
From the text: In this model, cells orthotopically implanted in the mammary fat pad generate primary masses that metastasize to the lungs.
Comparison of MYD1-72 Fc with clinical Axl. TKIs There are currently no FDA approved drugs targeting Axl, though several small molecule kinase inhibitors are undergoing clinical trials. BerGenBio's BGB324 (previously Rigel's R428) is the most advanced of these compounds, and the first to be developed prospectively as an Axl inhibitor. […] Furthermore, since TKI's and biologics are fundamentally very different, as are their mechanisms of action, a direct comparison would provide valuable insights into the potential of distinct therapeutic intervention strategies. […] Cells were implanted orthotopically in the mammary fat pad, and primary tumors were allowed to establish prior to treatment. […] This dose for the TKIs was chosen as significant activity has been previously reported at equivalent concentrations.
(§1) Treatment was initiated four days post-surgery.

[2] = system: phosphorylation of Axl, Mer, Tyro3, and downstream Akt signaling in OVCAR8 cells; experiment: Western blot of TAM receptor and Akt phosphorylation in OVCAR8 cells; format: cell-based, human
From the text: (§2) Cell lysates subjected to sodium dodecyl sulfate polyacrylamide gel electrophoresis followed by transfer to nitrocellulose membrane. The membranes were then probed with primary antibodies against total Axl (AF154, R&D Systems, INC., Minneapolis, Minn.), phospho-Axl (T702; #5724, CST, Danvers, Mass.), total Akt (#4691 CST, Danvers, Mass.), phosphor-Akt (#4060, CST, Danvers, Mass.), anti-MERTK (#ab52968, Abcam, Cambridge, Mass.), phospho-MERTK (#ab14921 Abcam, Cambridge, Mass.), anti-Tyro3 (#5585, CST, Danvers, Mass.), phospho-Tyro3 (#orb186274, Biorbyt LLC, Berkely, Calif.), Bcl-2 Family Antibody Sampler Kit (#9934, CST, Danvers, Mass.), anti-Chk2 (#sc-5278, Santa Cruz Biotech, INC., Santa Cruz, Calif.), anti-XRCC1 (#2735, CST, Danvers, Mass.), anti-γH2AX (Merck Millipore #05636, Darmstadt, Germany), anti-phospho-ATM (#ab81292, Abcam, Cambridge, Mass.), anti-ATM (#ab78, Abcam, Cambridge, Mass.), anti phospho-ATR (#2853, CST, Danvers, Mass.), anti-ATR (#2790, CST, Danvers, Mass.), anti-Phospho Chk1 (#12302, CST, Danvers, Mass.), anti-Phospho Chk2 (#2197, CST, Danvers, Mass.) and anti-RPA32 (#2208, CST, Danvers, Mass.) at 4° C. overnight. The blots were then washed and probed with HRP conjugated anti-goat (#sc-2020, Santa Cruz Biotech, INC., Santa Cruz, Calif.), or HRP conjugated anti-rabbit (#A16110, Thermo Fisher Scientific, Walthan, Mass.) as appropriate. The blots were developed with Bio-Rad Western C developing reagent (#170-5060 Bio-Rad, Hercules, Calif.) and visualized with Chemidoc digital imager (#1708280, Bio-Rad, Hercules, Calif.).

[3] = system: patients; settings: recent phase II trial; cited from earlier work
[4] = system: LM-P orthotopic pancreatic cancer; experiment: LM-P orthotopic pancreatic cancer model; settings: immunohistochemistry
Description: LMP cells derived from the KRAS/p53 metastatic mouse model were implanted subcutaneously into the flanks of mice and allowed to grow until they reached ˜500 mm^3 in size.
To establish orthotopic tumors, mice harboring subcutaneous tumors were sacrificed and tumors were isolated and cut into small fragments. Laparotomies were then performed and a tumor fragment was secured to the tail of the pancreas.
All procedures involving animals and their care and use were approved by the Institutional Animal Care and Usage Committee of Stanford University. For all in vivo studies, six week old, female nude (nu/nu) mice (Jackson Laboratory, Bar Harbor, Me.) were used. In all studies, animals displaying signs of morbidity were removed from the study immediately. […] Treatment was initiated four days post-inoculation for both studies. […] BGB324 (Selleckchem LLC, Houston, Tex.) and Foretinib (MedChem, Monmouth Junction, N.J.). Small molecules were administered twice daily via oral gavage. […] The orthotropic LM-P pancreatic adenocarcinoma model (a gift from Dr. Edgar Engleman at Stanford University, Stanford, Calif.) was established as previously described. Briefly, 1×10^6 cells were injected subcutaneously into the flanks of nude mice and grown for 2-3 weeks until they reached 500 mm^3. […]

[5] = system: skov3.ip; experiment: skov3.ip intraperitoneal ovarian cancer model; format: in vivo, mouse xenograft; settings: MYD1-72 Fc 1 mg/kg daily, doxorubicin 2 mg/kg twice weekly, three weeks
From the text: At this time, several mice were sacrificed at random to ensure engraftment of diffuse metastatic disease, a hallmark of the human condition. […] After three weeks of treatment, mice were sacrificed and tumor burden was quantified both by counting the number of visible lesions, as well as excising and weighing all diseased tissue.
as §1

[6] = system: Axl and FLT3 phosphorylation in AML cells; experiment: Western blot of Axl and FLT3 phosphorylation in AML cells; format: cell-based, human
From the text: as §2

[7] = biological target: T1, mouse Gas6 (mouse, UniProt Q61592 115-674, limits assumed); experiment: KinExA equilibrium titration in solution, apparent Kd of the dimeric Fc fusion
T1 construct: Recombinant in KinExA (detected through a 6xHIS tag); also called mGas6
T1 sequence (looked up): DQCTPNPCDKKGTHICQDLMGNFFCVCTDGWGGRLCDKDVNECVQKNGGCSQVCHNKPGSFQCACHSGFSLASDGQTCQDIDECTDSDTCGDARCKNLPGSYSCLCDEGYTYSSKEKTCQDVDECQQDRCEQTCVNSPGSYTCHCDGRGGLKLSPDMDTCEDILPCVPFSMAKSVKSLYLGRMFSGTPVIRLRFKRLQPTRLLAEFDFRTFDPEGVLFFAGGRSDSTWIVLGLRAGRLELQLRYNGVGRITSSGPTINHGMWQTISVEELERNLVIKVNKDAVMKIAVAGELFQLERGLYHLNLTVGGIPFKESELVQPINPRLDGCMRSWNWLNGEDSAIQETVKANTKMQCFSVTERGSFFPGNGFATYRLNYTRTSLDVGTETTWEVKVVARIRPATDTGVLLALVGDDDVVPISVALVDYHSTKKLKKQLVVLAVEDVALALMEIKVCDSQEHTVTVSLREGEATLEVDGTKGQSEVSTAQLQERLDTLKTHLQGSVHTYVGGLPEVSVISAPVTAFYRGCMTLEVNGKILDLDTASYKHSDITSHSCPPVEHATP

Molecule: Nc1nc(Nc2ccc3c(c2)CC[C@@H](N2CCCC2)CC3)nn1-c1cc2c(nn1)-c1ccccc1CCC2 [BGB324, reference compound]
reduction in lung metastases compared to vehicle treated mice [1]: 10%
size of primary tumors [1]: showed little effects
pAxl and pAkt levels [2]: short-term inhibition of pAxl but increased pAxl levels at later time points

Molecule: COc1cc2c(Oc3ccc(NC(=O)C4(C(=O)Nc5ccc(F)cc5)CC4)cc3F)ccnc2cc1OCCCN1CCOCC1 [Foretinib]
reduction in lung metastases compared to vehicle treated mice [1]: 55%
size of primary tumors [1]: significantly reduced the size of primary tumors
pAxl and pAkt levels [2]: indiscriminately inhibited all TAM receptors
pMer and pTyro3 levels [2]: indiscriminately inhibited all TAM receptors
clinical efficacy [3]: failed to demonstrate efficacy
patients with treatment-related adverse events [3]: 91%

Molecule: Nc1ccn([C@@H]2O[C@H](CO)[C@@H](O)C2(F)F)c(=O)n1 [Gemcitabine, reference compound]
Ki67 proliferation in primary tumor [4]: small, albeit significant decrease in proliferation

Molecule: COc1cccc2c1C(=O)c1c(O)c3c(c(O)c1C2=O)C[C@@](O)(C(=O)CO)C[C@@H]3O[C@H]1C[C@H](N)[C@H](O)[C@H](C)O1 [doxorubicin, reference compound]
decrease in tumor burden (by weight) vs controls [5]: 91%

Molecule: wildtype Axl Fc: wild-type Axl decoy receptor as Fc fusion
Axl and FLT3 phosphorylation [6]: inhibited Axl and FLT3 phosphorylation

Kd [7]: 1.1 pM
B1: MYD1-Fc (Fc fusion)
chain: APRGTQAEESPFVSNPGNITGARGLTGTLRCQLQVQGEPPEVHWLRDGQILELADSTQTQVPLGEDEQGDWIVASQLRITSLQLSDTGQYQCLVFLGHQTFVSQPGYVRLEGLPYFLEEPEDRTVAANTPFNLSCQAQGPPEPVDLLWLQDAVPLATAPGHGPQRSLHVPGLNKTSSFSCEAHNAKGVTTSRTATITVLPQQPRNLHLVSRQPTELEVAWTPGLSGIYPLTHCTLQAVLSNDGMGIQAGEPDPPEEPLTSQASVPPHQLRLGSLHPHTPYHIRVACTSSQGPSSWTHWLPVETPEGVPLGPPENISATRNGSQAFVHWQEPRAPLQGTLLGYRLAYQGQDTPEVLMDIGLRQEVTLELQGDGSVSNLTVCVAAYTAAGDGPWSLPVPLEAWRPGQAQPVHQLVKEPSTPAFS
notes: Dimeric Fc fusion made in HEK293; MYD1 mutations deduced as MYD1-72 minus A72V; not shown: Fc domain

Kd [7]: 0.14 pM
B2: MYD1-72 Fc (Fc fusion)
chain: APRGTQAEESPFVSNPGNITGARGLTGTLRCQLQVQGEPPEVHWLRDGQILELVDSTQTQVPLGEDEQGDWIVASQLRITSLQLSDTGQYQCLVFLGHQTFVSQPGYVRLEGLPYFLEEPEDRTVAANTPFNLSCQAQGPPEPVDLLWLQDAVPLATAPGHGPQRSLHVPGLNKTSSFSCEAHNAKGVTTSRTATITVLPQQPRNLHLVSRQPTELEVAWTPGLSGIYPLTHCTLQAVLSNDGMGIQAGEPDPPEEPLTSQASVPPHQLRLGSLHPHTPYHIRVACTSSQGPSSWTHWLPVETPEGVPLGPPENISATRNGSQAFVHWQEPRAPLQGTLLGYRLAYQGQDTPEVLMDIGLRQEVTLELQGDGSVSNLTVCVAAYTAAGDGPWSLPVPLEAWRPGQAQPVHQLVKEPSTPAFS
notes: Dimeric Fc fusion made in HEK293; also called MYD-72 Fc; second generation Axl decoy receptor; not shown: Fc domain
